Measured values taken from ChEMBL document CHEMBL1201862, “PubChem BioAssay data set” (2004).
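Step 1: Grow cells in 96-well plates. Step 2: Expose to compound for 48 hours at 5 concentrations. Step 3: Interpolate endpoints linearly; if unreached, use highest concentration. At the GI50, growth is halved.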 The source made the active and inactive calls. Rule as the data show it: active = GI50 up to about 1.1 µM and inactive = higher.

Experiments:
Test in all cases: NCI tumour cell line growth inhibition, 48 h
UACC-62 = test system: UACC-62
HOP-92 = test system: HOP-92
NCI-H226 = test system: NCI-H226
K562 = test system: K562
HL-60 = test system: HL-60
SN12C = test system: SN12C
HCT-15 = test system: HCT-15
IGROV-1 = test system: IGROV-1
SK-OV-3 = test system: SK-OV-3
RPMI-8226 = test system: RPMI-8226
786-0 = test system: 786-0
UACC-257 = test system: UACC-257
SNB-19 = test system: SNB-19
SW-620 = test system: SW-620
Malme-3M = test system: Malme-3M
SF-539 = test system: SF-539
UO-31 = test system: UO-31
Hs-578T = test system: Hs-578T
PC-3 = test system: PC-3

SMILES | GI50 (UACC-62) | GI50 (HOP-92) | GI50 (NCI-H226) | GI50 (K562) | GI50 (HL-60) | GI50 (SN12C) | GI50 (HCT-15) [µM] | GI50 (IGROV-1) | GI50 (SK-OV-3) | GI50 (RPMI-8226) | GI50 (786-0) | GI50 (UACC-257) | GI50 (SNB-19) | GI50 (SW-620) | GI50 (Malme-3M) | GI50 (SF-539) | GI50 (UO-31) | GI50 (Hs-578T) | GI50 (PC-3)
O=C(/C=C/c1cccc([N+](=O)[O-])c1)c1cccnc1 | 30.2 µM (inactive) | 74 µM (inactive) | > 52.6 µM (inactive) | 29.4 µM (inactive) | 20.6 µM (inactive) | 26.5 µM (inactive) | 43.5 | 28.7 µM (inactive) | > 100 µM (inactive) | 19.4 µM (inactive) | 16.5 µM (inactive) | 23.9 µM (inactive) | > 53.3 µM (inactive) | 19.4 µM (inactive) | > 89.9 µM (inactive) | 21.1 µM (inactive) | > 45.1 µM (inactive) | – | –
Cc1ccccc1N(CCC#N)C1=NN(C(=O)CC(=O)Nc2ccc(Cl)cc2)C(c2ccccc2)C1 (centres undefined) | > 100 µM (inactive) | > 100 µM (inactive) | > 100 µM (inactive) | > 100 µM (inactive) | > 100 µM (inactive) | > 100 µM (inactive) | > 100 | > 100 µM (inactive) | > 100 µM (inactive) | > 100 µM (inactive) | > 100 µM (inactive) | > 100 µM (inactive) | > 100 µM (inactive) | > 100 µM (inactive) | > 100 µM (inactive) | > 100 µM (inactive) | > 100 µM (inactive) | – | –
COc1cc2c(cc1OC)-c1c(oc3cc(OC4OC(CO)C(O)C(O)C4O)c(OC)cc3c1=O)C(O)O2 (centres undefined) | > 100 µM (inactive) | > 100 µM (inactive) | > 100 µM (inactive) | > 100 µM (inactive) | > 100 µM (inactive) | > 100 µM (inactive) | > 100 | > 100 µM (inactive) | > 100 µM (inactive) | > 100 µM (inactive) | > 100 µM (inactive) | > 100 µM (inactive) | > 100 µM (inactive) | > 100 µM (inactive) | > 100 µM (inactive) | > 100 µM (inactive) | > 100 µM (inactive) | > 100 µM (inactive) | > 100 µM (inactive)
O=C1/C(=C/c2cccs2)NC(=S)N1CN1CCCCC1 | 55.8 µM (inactive) | 77.1 µM (inactive) | 78.2 µM (inactive) | 52.1 µM (inactive) | – | 97.5 µM (inactive) | 29.9 | 67.1 µM (inactive) | > 100 µM (inactive) | 28.9 µM (inactive) | 42.3 µM (inactive) | – | 29.7 µM (inactive) | 30.3 µM (inactive) | > 100 µM (inactive) | – | 80.2 µM (inactive) | > 100 µM (inactive) | 98.2 µM (inactive)
CN(C)C1(C#N)CCC2(CC1)OCCO2 | > 100 µM (inactive) | > 100 µM (inactive) | > 100 µM (inactive) | > 100 µM (inactive) | > 100 µM (inactive) | > 100 µM (inactive) | > 100 | > 100 µM (inactive) | > 100 µM (inactive) | > 100 µM (inactive) | > 100 µM (inactive) | > 100 µM (inactive) | > 100 µM (inactive) | > 100 µM (inactive) | > 100 µM (inactive) | > 100 µM (inactive) | > 100 µM (inactive) | – | –
Cc1ccc(-c2c(C#N)c(-c3ccc(N(C)C)cc3)c(C#N)c(=O)n2NS(=O)(=O)c2ccccc2)cc1 | 30.8 µM (inactive) | > 100 µM (inactive) | > 100 µM (inactive) | 44.9 µM (inactive) | 44.8 µM (inactive) | 55.7 µM (inactive) | 27.7 | 63.2 µM (inactive) | 62.1 µM (inactive) | 8.67 µM (inactive) | 22.9 µM (inactive) | > 100 µM (inactive) | 63.7 µM (inactive) | 39.2 µM (inactive) | 87.9 µM (inactive) | 21.9 µM (inactive) | – | 33.7 µM (inactive) | 33.4 µM (inactive)
CC/C(Cl)=N\OC(=O)Nc1ccc(F)c([N+](=O)[O-])c1 | 17.3 µM (inactive) | 5.14 µM (inactive) | 33.3 µM (inactive) | 3.05 µM (inactive) | 2.39 µM (inactive) | 17.5 µM (inactive) | 6.44 | 17.9 µM (inactive) | 19.1 µM (inactive) | 2.94 µM (inactive) | 6.64 µM (inactive) | 17.6 µM (inactive) | 17.5 µM (inactive) | 4.15 µM (inactive) | 2.13 µM (inactive) | 5.32 µM (inactive) | 6.03 µM (inactive) | 17.4 µM (inactive) | 17.3 µM (inactive)
COC[C@@H](/N=C/N1CCc2cc(OC)c(OC)cc2[C@@H]1C)C(C)(C)C | > 100 µM (inactive) | > 100 µM (inactive) | > 100 µM (inactive) | > 100 µM (inactive) | > 100 µM (inactive) | > 100 µM (inactive) | > 100 | > 100 µM (inactive) | > 100 µM (inactive) | > 100 µM (inactive) | > 100 µM (inactive) | > 100 µM (inactive) | > 100 µM (inactive) | > 100 µM (inactive) | > 100 µM (inactive) | > 100 µM (inactive) | > 100 µM (inactive) | – | –
COC1=CC(=O)C2C(C1=O)[C@@H]1c3ccccc3OC[C@H]21 (some centres undefined) | – | > 100 µM (inactive) | > 100 µM (inactive) | > 100 µM (inactive) | > 100 µM (inactive) | – | > 10 | – | > 100 µM (inactive) | > 100 µM (inactive) | > 100 µM (inactive) | – | > 100 µM (inactive) | > 100 µM (inactive) | > 100 µM (inactive) | > 100 µM (inactive) | > 100 µM (inactive) | – | –
COc1ccc(-c2nc3ncccn3c2-c2ccc([S+](C)[O-])cc2)cc1 (centres undefined) | 54.7 µM (inactive) | 61.2 µM (inactive) | – | > 100 µM (inactive) | > 100 µM (inactive) | > 100 µM (inactive) | > 100 | > 100 µM (inactive) | 45.3 µM (inactive) | > 100 µM (inactive) | > 100 µM (inactive) | > 100 µM (inactive) | > 100 µM (inactive) | > 100 µM (inactive) | – | > 100 µM (inactive) | > 100 µM (inactive) | > 100 µM (inactive) | > 100 µM (inactive)
CC(=O)OC1(C#N)CC2OC1C1NC21 (centres undefined) | > 100 µM (inactive) | > 100 µM (inactive) | > 100 µM (inactive) | > 100 µM (inactive) | > 100 µM (inactive) | > 100 µM (inactive) | > 100 | > 100 µM (inactive) | > 100 µM (inactive) | > 100 µM (inactive) | > 100 µM (inactive) | – | > 100 µM (inactive) | > 100 µM (inactive) | > 100 µM (inactive) | > 100 µM (inactive) | > 100 µM (inactive) | – | –
CC(C)NC(=O)O/N=C1\CCC2[C@@H]3CC=C4C[C@@H](OC(=O)NC(C)C)CC[C@]4(C)C3CC[C@]12C (some centres undefined) | 1.3 µM (inactive) | 2.08 µM (inactive) | 18.1 µM (inactive) | 0.953 µM (active) | 0.632 µM (active) | 1.57 µM (inactive) | 1.43 | 1.87 µM (inactive) | 4.31 µM (inactive) | 0.695 µM (active) | 1.61 µM (inactive) | 0.685 µM (active) | 2.02 µM (inactive) | 1.79 µM (inactive) | 0.31 µM (active) | 2.4 µM (inactive) | 1.01 µM (active) | – | –
O=C1NC(=O)C2C1N(Cc1ccccc1)C(=O)N2Cc1ccccc1 (centres undefined) | > 100 µM (inactive) | > 100 µM (inactive) | > 100 µM (inactive) | > 100 µM (inactive) | > 100 µM (inactive) | > 100 µM (inactive) | > 100 | > 100 µM (inactive) | > 100 µM (inactive) | > 100 µM (inactive) | > 100 µM (inactive) | > 100 µM (inactive) | > 100 µM (inactive) | > 100 µM (inactive) | > 100 µM (inactive) | > 100 µM (inactive) | > 100 µM (inactive) | – | –
C=Cc1ccc(C)[n+](C[Si](C)(C)O[Si](C)(C)C[n+]2cc(C=C)ccc2C)c1 | > 100 µM (inactive) | > 100 µM (inactive) | > 100 µM (inactive) | > 100 µM (inactive) | > 100 µM (inactive) | > 100 µM (inactive) | – | > 100 µM (inactive) | > 100 µM (inactive) | > 100 µM (inactive) | > 100 µM (inactive) | > 100 µM (inactive) | > 100 µM (inactive) | > 100 µM (inactive) | > 100 µM (inactive) | > 100 µM (inactive) | > 100 µM (inactive) | – | –
COc1cc2c(c(OC)c1OC)-c1ccc(SC)c(=O)cc1[C@@H](NC(=O)c1ccc([N+](=O)[O-])cc1)CC2 | 0.00853 µM (active) | < 0.0025 µM (active) | < 0.01 µM (active) | < 0.0025 µM (active) | < 0.0025 µM (active) | 0.00957 µM (active) | 0.00843 | 0.0126 µM (active) | < 0.0025 µM (active) | < 0.0025 µM (active) | 0.00528 µM (active) | < 0.0025 µM (active) | – | < 0.0025 µM (active) | < 0.0025 µM (active) | < 0.0025 µM (active) | 0.00579 µM (active) | – | –
Cc1ccc(C)c(NC(=O)c2cccc([N+](=O)[O-])c2O)c1 | 5.74 µM (inactive) | 12.7 µM (inactive) | 16.6 µM (inactive) | > 100 µM (inactive) | > 100 µM (inactive) | 27.2 µM (inactive) | 28.8 | 22.2 µM (inactive) | 29.9 µM (inactive) | 5.71 µM (inactive) | 44.1 µM (inactive) | 16.1 µM (inactive) | 34.4 µM (inactive) | 37.6 µM (inactive) | 17.8 µM (inactive) | 32.3 µM (inactive) | 16.5 µM (inactive) | – | –
